Measured values: patent US20110165652A1, “COMPOSITIONS, METHODS AND SYSTEMS FOR SINGLE MOLECULE SEQUENCING” (LIFE TECHNOLOGIES CORPORATION, priority 2008, published 2011)
Entries after “also recorded” stand apart in the source; their conditions may differ.

Legend:
Assay type in all cases: biochemical
[1] = system: 5′ fluorescein-labeled primer:template duplex; test: Ensemble primer extension with gamma-labeled dNTP by Phi29 mutant protein; conditions: for Ensemble Extension Activity: γ-nucleotide incorporation: relative to parent Phi29 exo(−) D12A/D66A, 0.5 μM or 5 μM gamma-labeled dNTP, 10 seconds to 5 minutes; for extension (FIG. 70C, 70D): ensemble PAGE analyses
Source text: Table 1, below, summarizes the ability of each mutant Phi29 polymerase to incorporate gamma-labeled nucleotides (as indicated in the column entitled “Ensemble Extension Activity”), fidelity of replication (as indicated in the column entitled “Fidelity”) and for activity in a single-molecule detected system, as depicted in FIGS. 20-59′ and 69-76 and associated description (see below), and indicated in the last column, entitled “Activity on Detection System.” Each and every mutation introduced into a given Phi29 mutant protein is listed in the column entitled “Mutations”; mutations are designated by the original amino acid/its position/its replacement, e.g., V250A means that valine at position 250 was replaced by alanine by site specific mutagenesis. If two or more amino acid substitutions are made, then each is designated as above and separated by a “/”. The predicted effect of a given mutation on polymerase activity, based on structure-function analysis of Phi29 polymerase, is provided in the column entitled “Expected Effect.” The various Phi29 mutants generated via selective mutagenesis, along with any applicable results of extension studies, fidelity assays and single molecule detection studies using each mutant protein, are collectively summarized in Table 1, below. To perform the extension studies, 330 nM Phi29 mutant protein and 100 nM 5′ fluorescein-labeled primer:template duplex were co-incubated in a solution comprising 50 mM Tris (pH 7.0), 2 mM MnCl2, 2 mM DTT, 0.1% Triton-X-100, 0.01% Tween-20. The reactions were initiated by addition of 0.5 μM or 5 μM of gamma-labeled dNTP, and quenched via addition of 30 mM EDTA at timepoints ranging from 10 seconds to 5 minutes. The reaction products were then separated on a 20% denaturing acrylamide gel and imaged on a Bio-Rad Molecular Imager FX. The intensity of each reaction product was quantified using Bio-Rad Quantity One software. FIGS. 20-59′ depict the results of extension studies conducted using specific Phi29 mutants.

[2] = system: template specifying incorporation of a single γ-labeled nucleotide; test: Real time on-surface single molecule detection of γ-labeled nucleotide incorporation; conditions: for Activity on Detection System: more signals: number of signals relative to parent enzyme; for Activity on Detection System: Signals detected (timing of appearance) / Activity on Detection System: long duration signals / Activity on Detection System: high ASB signals: relative to parent enzyme
Protocol: Real time “On surface” experiments were performed to characterize the activity of the Phi29 variants on an exemplary single molecule sequencing system (FIGS. 72A and B). Chambered slides were prepared to facilitate injection and multiple experiments data collection from several chambers using a single slide. The template specified incorporation of a single γ-labeled nucleotide. The samples were excited using a 488 nm Argon ion laser at 2.5 mW and the data were collected at 25 ms integration time. Each stream of data was collected for 1500 frames, consecutive streams were collected for ˜5 minutes by moving to new fields of views (FOVs). FRETAN software was used to obtain the donor and acceptor traces.
After trace analysis, the selected signals (with acceptor signal over background greater than 4, i.e., ASN≧4) were characterized by examining attributes including duration, ASN and timing of signal appearance (i.e., start of signals). The variants that are of special interest include Variants 2 and 3.

[3] = system: 5′ fluorescein-labeled primer:template duplex; test: Replication fidelity: primer extension with incorrect (non-complementary) gamma-labeled nucleotide; conditions: incorrect gamma-labeled nucleotide in lieu of the complementary one
Protocol: To assay the replication fidelity of each mutant Phi29 polymerase protein, primer extensions were carried out in the same manner, except that an incorrect (i.e., non-complementary) gamma-labeled nucleotide was added to the extension mixture in lieu of the complementary nucleotide, and the amount of extended product following extension in presence of the incorrect nucleotide was analyzed.

γ-dGTP = test: 7-base homopolymeric extension reactions (FIG. 19B, 19C); conditions: for extension under limiting conditions: 30 second to 1 minute extension time
Source text: When the aspartic acid at position 456 is mutated, the activity is reduced but still detectable. FIG. […]
Three residues that have been implicated in catalysis of nucleotide incorporation by phi29 DNA polymerase are D458, D456, and V250 (Berman, Kamtekar et al., 2007). […] In one embodiment, D456 is mutated to glutamic acid, thus distorting the active site, but still allowing catalysis due to the presence of the functional group. The backbone of V250 additionally appears to play a role in catalysis; in some embodiments, the chemistry step will be slowed by mutating the V250 residue to an isoleucine or alanine in order to slow the chemistry step.

[4] = Initial tests of reaction rate of alpha-phosphate modified dGTP; conditions: data not shown
dG2Oy650 = test: Inc50: nucleotide concentration at which half of the primer is extended one base in sixty seconds; conditions: dG2Oy650 in duplicate
Source text: In one exemplary embodiment, an alanine was substituted for the valine at position 250. As is seen in FIG. 70C (Variant 5) the rate of extension by this mutant polymerase is decreased relative to wild type. […] To compensate for the reduced extension we combined V250A with several mutations that increase binding efficiency of γ-modified nucleotides. […] As is seen in FIG. 70C, Variant 2, the extension of the V250A mutant is improved through introduction of the E375Y mutation. The mutation V250A was also combined with the mutations E375A/Q380A as well as E375C.

[5] = Exonuclease activity of Phi29 variants; conditions: printed in column Ensemble Extension Activity or in text
[6] = system: template specifying incorporation of a single γ-labeled nucleotide followed by a base-labeled nucleotide; test: On-surface single molecule detection, single γ-labeled nucleotide followed by a base-labeled nucleotide; conditions: for frequency of γ-signals detected: single γ and base-labeled nucleotide incorporation
Protocol: Similar experiments were performed using a template specifying incorporation of a single γ-labeled nucleotide followed by a base-labeled nucleotide and data were analyzed as described above.
Example sets of signals detected using Phi29 variants over time are shown (FIGS. 72-75). […] Next, considering the appearance of BL-signals, the signals for the parent enzyme (#1) are nicely distributed and follow a Gaussian distribution (peak in the 121-180 second bin), whereas Variant 2's BL-signals appear between 0-120 seconds—again indicating an earlier appearance of signals when Variant 2 is compared with the parent enzyme.

V250A/E375C: Phi29 exo(−) (D12A/D66A) polymerase mutant
Ensemble Extension Activity: γ-nucleotide incorporation [1]: Decreased rate | Activity on Detection System: more signals [2]: 3.5x more signals. | Activity on Detection System: Signals detected (timing of appearance) [2]: earlier. | Activity on Detection System: long duration signals [2]: More long duration | Fidelity (mis-incorporation) [3]: appears to remain intact; also recorded: No mis-

V250A/E375A/Q380A: Phi29 exo(−) (D12A/D66A) polymerase mutant
Ensemble Extension Activity: γ-nucleotide incorporation [1]: Decreased rate | Activity on Detection System: more signals [2]: 3x more signals. | Activity on Detection System: Signals detected (timing of appearance) [2]: earlier. | Activity on Detection System: high ASB signals [2]: More high ASB signals. | Activity on Detection System: long duration signals [2]: More long duration | Fidelity (mis-incorporation) [3]: appears to remain intact; also recorded: No mis-

D456N: Phi29 exo(−) (D12A/D66A) polymerase mutant [Variant D456N]
extension under limiting conditions (γ-dGTP; 1 μM γ-dGTP): significant impact | extension under limiting conditions (γ-dGTP; 1 μM γ-dGTP, listed as D456 to an asparagine): significantly reduced extension | extension under permissive conditions (γ-dGTP; 5 minutes with 5 μM nucleotides): somewhat reduced extension | Ensemble Extension Activity: γ-nucleotide incorporation [1]: Impaired | Activity on Detection System: more signals [2]: Fewer signals.

BP(=O)(OCC1OC(n2cnc3c(=O)[nH]c(N)nc32)CC1O)OP(=O)(O)OP(=O)(O)O (stereo not drawn) [[alpha]-P-borano-dGTP]
reduction of reaction rate as compared to the natural counterpart [4]: 1.32 fold

V250A: Phi29 exo(−) (D12A/D66A) polymerase mutant [Variant V250A]
Inc50 (dG2Oy650): remains relatively unaffected | extension within a minute (γ-dGTP; 1 μM γ-dGTP): at least 5 bases | extension under limiting conditions (γ-dGTP; 1 μM γ-dGTP): visibly slowing down extension | extension (FIG. 70C, 70D) ([1]; γ-nucleotides): decreased | Ensemble Extension Activity: γ-nucleotide incorporation [1]: Decreased rate | Activity on Detection System: more signals [2]: Fewer signals.

Q380A: Phi29 exo(−) (D12A/D66A) polymerase mutant [Variant Q380A]
Ensemble Extension Activity: γ-nucleotide incorporation [1]: More efficient | Activity on Detection System: more signals [2]: 2.5x more signals. | Fidelity (mis-incorporation) [3]: No mis-

Nc1nc2c(ncn2[C@H]2C[C@H](O)[C@@H](COP(O)(=S)OP(=O)(O)OP(=O)(O)O)O2)c(=O)[nH]1 (stereo partly drawn) [[alpha]-P-thiol-dGTP]
reduction of reaction rate as compared to the natural counterpart [4]: 1.61 fold

E375A: Phi29 exo(−) (D12A/D66A) polymerase mutant [Variant E375A]
Inc50 (dG2Oy650): reduced | extension (FIG. 70C, 70D) ([1]; γ-nucleotides): increased extension | Ensemble Extension Activity: γ-nucleotide incorporation [1]: More efficient | Activity on Detection System: more signals [2]: 3x more signals. | Fidelity (mis-incorporation) [3]: No mis-

Phi29: Phi29 polymerase benchmark of the Inc50 comparison in Table 1; probably the exo(−) parent [reference compound]
Inc50 (dG2Oy650): (Phi29 = 0.14)

N62D: mutant based on wild type Φ29 DNA polymerase [Variant N62D]
exonuclease activity [5]: Still has exo

V250A/E375Y: Phi29 exo(−) (D12A/D66A) polymerase mutant
extension (FIG. 70C, 70D) ([1]; γ-nucleotides, listed as 2): slowed in incorporation | extension (FIG. 70C, 70D) ([1]; γ-nucleotides, listed as Variant 2): improved | Ensemble Extension Activity: γ-nucleotide incorporation [1]: Decreased rate | Activity on Detection System: more signals [2]: 3x more signals. | Activity on Detection System: high ASB signals [2]: More high ASB signals. | Activity on Detection System: long duration signals [2]: More long duration | ASN of signals (population of molecules) ([2]; signals with ASN≧4): higher ASN | duration of signals (population of molecules) ([2]; signals with ASN≧4): longer duration | frequency of events detected ([2]; signals with ASN≧4): higher frequency of events detected | Fidelity (mis-incorporation) [3]: appears to remain intact; also recorded: No mis- | appearance of BL-signals after injection (window; peak bin for parent) [6]: 0 to 120 s | time after injection in which most of the γ-signals are detected [6]: ≤ 60 s | frequency of γ-signals detected [6]: higher frequency

T15I: mutant based on wild type Φ29 DNA polymerase [Variant T15I]
exonuclease activity [5]: Still has exo

D12A/D66A/D169A: Phi29 polymerase exo minus variant
exonuclease activity [5]: exo deficient

Parent Enzyme Phi29exo(−) D12A/D66A: Phi29 polymerase with mutations D12A and D66A, SEQ. ID: 3, reduced exonuclease activity
Ensemble Extension Activity: γ-nucleotide incorporation [1]: Benchmark | exonuclease activity ([5]; listed as D12A/D66A): exo deficient | exonuclease activity ([5]; listed as Phi29 exo(−)): reduced exonuclease activity | Activity on Detection System: more signals [2]: Benchmark | Fidelity (mis-incorporation) [3]: No mis- | appearance of BL-signals after injection (window; peak bin for parent) [6]: 121 to 180 s | frequency of γ-signals detected [6]: few signals are detected

D456E: Phi29 exo(−) (D12A/D66A) polymerase mutant [Variant D456E]
extension under limiting conditions (γ-dGTP; 1 μM γ-dGTP): significant impact | Ensemble Extension Activity: first base extension ([1]; γ-nucleotides): Increased first | Activity on Detection System: more signals [2]: Fewer signals.

D169A: Phi29 polymerase variant generated by total DNA synthesis [Variant D169A]
exonuclease activity [5]: exo deficient
